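The compound was tested at five concentrations on cells cultured in 96-well plates, with a 48-hour exposure period. Definition used: TGI = concentration required for complete inhibition of growth.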
What was measured:
Test in all cases: growth of human tumour cells (NCI), 48 h
SW-620 colon = system: SW-620 colon
OVCAR-4 ovarian = system: OVCAR-4 ovarian
NCI-H460 lung = system: NCI-H460 lung
SNB-19 CNS = system: SNB-19 CNS
HCT-116 colon = system: HCT-116 colon
MDA-MB-231 breast = system: MDA-MB-231 breast
OVCAR-3 ovarian = system: OVCAR-3 ovarian
SN12C renal = system: SN12C renal
SF-539 CNS = system: SF-539 CNS
HL-60(TB) leukemia = system: HL-60(TB) leukemia
RPMI-8226 leukemia = system: RPMI-8226 leukemia

Compound	TGI (SW-620 colon) [µM]	TGI (OVCAR-4 ovarian) [µM]	TGI (NCI-H460 lung) [µM]	TGI (SNB-19 CNS) [µM]	TGI (HCT-116 colon) [µM]	TGI (MDA-MB-231 breast) [µM]	TGI (OVCAR-3 ovarian) [µM]	TGI (SN12C renal) [µM]	TGI (SF-539 CNS) [µM]	TGI (HL-60(TB) leukemia) [µM]	TGI (RPMI-8226 leukemia) [µM]
CCC(C#N)NCc1cccc(CNC(C#N)CC)c1 (stereo unspecified)	> 100	> 100	> 100	> 100	> 100	> 100	> 100	> 100	> 100	> 100	
C(=C\c1ccco1)/c1cccc(/C=C/c2ccco2)n1	> 50	> 50	> 50	> 50	> 50		> 50	> 50	> 50	> 50	> 50
COc1cc(/C=c2\sc3n(c2=O)C(c2ccc(Cl)cc2)C2=C(CCCC2C)N=3)cc(OC)c1OC (stereo unspecified)	> 100			> 100	> 100	> 100		> 100		> 100	> 100
COc1ccc(/C=C2\CCC(C)C3=C2N=c2s/c(=C/c4cccc(Br)c4)c(=O)n2C3c2ccc(OC)c(OC)c2)cc1OC (stereo unspecified)	> 100	> 100		> 100	> 100	> 100		> 100		> 100	> 100
CC(=O)O[C@H]1[C@H](OC(=O)CC(C)(O)CC(=O)O)C[C@]2(C)C3=C(CCC2C1(C)C)[C@]1(C)CC[C@H]([C@H]2CC[C@H](C(C)(C)O)OC2O)[C@@]1(C)[C@@H](O)C3 (stereo partly specified)	27.2	37.8	28.6	33.6	44.7	32.4	30.4	32.1		36.5	43.8
O=C1C(c2c(O)[nH]c3ccc(Br)cc23)=Nc2ccccc21	> 100	29.8	44.6	28.1	6.47	37.2	45.8	> 100		> 100	> 100
CC(=O)O[C@H]1C(=O)[C@@]2(C)C(C(OC(=O)c3ccccc3)C3[C@@H](O)C(OC(=O)[C@@H](O)[C@H](NC(=O)c4ccccc4)c4ccc(C(F)(F)F)cc4)C(C)=C1C3(C)C)[C@]1(OC(C)=O)CO[C@@H]1C[C@@H]2O (stereo partly specified)	> 25		> 25	> 25	> 25		> 25	> 25	> 25	> 25	> 25
COc1ccc(SCc2cc(OCc3ccccc3)c(OCc3ccccc3)c(OCc3ccccc3)c2)cc1		3.25		3.19	3.14	2.7	3.04	3.49	3.45	3.44	
C=C1C2C[C@@H]3O[C@H]4C[C@H]5O[C@@]6(C[C@@H]7O[C@]8(C[C@H](C)[C@@H]9O[C@@H]%10CC(CO)O[C@@H]%10C[C@@H]9O8)C[C@H](C)[C@@H]7O6)C[C@H]5O[C@H]4[C@H](C)[C@H]3OC(=O)C[C@H]3CC[C@@H]4OC5[C@H]6O[C@]7(CC[C@H]8CC(=C)[C@H](CC[C@@H](C[C@H]1C)O2)O8)CC6O[C@@H]5[C@@H](O7)[C@H]4O3 (stereo partly specified)	> 1	> 1		> 1		> 1	> 1	> 1			> 1
Cc1cn(CC2=NCC(C)N2)c(=O)[nH]c1=O (stereo unspecified)	> 100		> 100	> 100	> 100	> 100		> 100			> 100

From PubChem BioAssay (NCI)
